Laboratory results: the NIST ThermoML archive (doi:10.1016/j.fluid.2007.10.013)

Test: xn = mol fraction of the nth substance listed
Settings: 101 kPa, Liquid, Taylor dispersion method, x1 = 0

## NC(CO)C(=O)O (centres undefined) [(.+-.)-serine] + O
293.2 K
  binary diffusion coefficient: 7.72e-10 m2/s
298.2 K
  binary diffusion coefficient: 8.8e-10 m2/s
303.2 K
  binary diffusion coefficient: 9.91e-10 m2/s
313.2 K
  binary diffusion coefficient: 1.26e-09 m2/s
323.2 K
  binary diffusion coefficient: 1.55e-09 m2/s
333.2 K
  binary diffusion coefficient: 1.88e-09 m2/s

## NC(CCO)C(=O)O (stereo not drawn) [DL-2-amino-4-hydroxybutanoic acid] + O
293.2 K
  binary diffusion coefficient: 7.26e-10 m2/s
298.2 K
  binary diffusion coefficient: 8.39e-10 m2/s
303.2 K
  binary diffusion coefficient: 9.39e-10 m2/s
313.2 K
  binary diffusion coefficient: 1.19e-09 m2/s
323.2 K
  binary diffusion coefficient: 1.47e-09 m2/s
333.2 K
  binary diffusion coefficient: 1.78e-09 m2/s

## C[C@H](O)[C@H](N)C(=O)O [DL-allothreonine] + O
293.2 K
  binary diffusion coefficient: 6.97e-10 m2/s
298.2 K
  binary diffusion coefficient: 7.96e-10 m2/s
303.2 K
  binary diffusion coefficient: 9.06e-10 m2/s
313.2 K
  binary diffusion coefficient: 1.14e-09 m2/s
323.2 K
  binary diffusion coefficient: 1.42e-09 m2/s
333.2 K
  binary diffusion coefficient: 1.72e-09 m2/s

## C[C@@H](O)[C@H](N)C(=O)O [DL-threonine] + O
293.2 K
  binary diffusion coefficient: 6.91e-09 m2/s
298.2 K
  binary diffusion coefficient: 7.99e-09 m2/s
303.2 K
  binary diffusion coefficient: 9.04e-09 m2/s
313.2 K
  binary diffusion coefficient: 1.14e-08 m2/s
323.2 K
  binary diffusion coefficient: 1.43e-08 m2/s
333.2 K
  binary diffusion coefficient: 1.72e-08 m2/s
